This note sets out measurements from patent publication US9718813B2, “Imidazolin-5-one derivative useful as FASN inhibitors for the treatment of cancer” (Janssen Pharmaceutica, NV, priority 2013, dated 2017).

The target in assay [1] is hFASN enzyme (full length) (Homo sapiens (Human), UniProt P49327). The assay can be described thus: Fatty Acid Synthase (FASN) Inhibition Scintillation Proximity Assay. It is filed as biochemical. The note with it: 3H-acetyl-CoA and malonyl-CoA substrates, SPA, mean if tested more than once. How it is done: In this assay, inhibition of FASN activity is measured using ^3H-acetyl-CoA and malonyl-CoA as substrates. ^3H-Acetyl CoA is converted to ^3H-palmitate through a series of reactions by the FASN protein, which contains 7 functional domains and carries out 7 enzymatic reactions to ultimately produce ^3H-palmitate. The assay principle is based upon the fact that ^3H-acetyl-CoA is hydrophilic and the end product, ^3H-palmitate is hydrophobic.
10 μL assay buffer (100 mM KH2PO4 pH 7.5, 1 mM DTT) (20 μL in blanks) was added to a 384-well white Opti Plate plate (Perkin Elmer). 0.9 μL test compound (at concentrations of 30 μM, 10 μM, 3 μM, 1 μM, 0.30 μM, 0.10 μM, 0.03 μM and 0.01 μM)/DMSO and 10 μL hFASN enzyme (full length, 300 ng, purified in house) or 10 μL assay buffer was added to the wells. […] The reaction was stopped by adding 20 μL Streptavidin coupled imaging beads (25 mg/ml). After incubation for 30 minutes at room temperature in the dark, the 384 well plate was centrifuged at 1500 rpm for 3 minutes and was measured after at least 24 hrs by the LEADseeker™, measuring emission using a 610±20 nm pass filter.
(§1) Raw data generated by the instrument were normalized to % Controlmin values, which were calculated as: % Controlmin=100*(x−mLC)/(mHC−mLC)
(§2) where mLC and mHC were the means of the low control wells and high control wells on the plate, after manual exclusion of outliers. A plot of Controlmin versus test compound concentration was fitted to a 4-parameter logistic curve using a non-linear least squares regression method.
For orientation: SPA uses beads or plates that emit light when radiolabelled molecules are held near them.

The target in assay [2] is FASN Keto-reductase Domain (hFASN enzyme, full length) (Homo sapiens (Human), UniProt P49327). As to the kind of experiment: Fatty Acid Synthase Keto-reductase Domain (FASN KR) Inhibition. The settings on record: NADPH oxidation at 340 nm, ethyl acetoacetate substrate. It is filed as biochemical. How it is done:
After 20 minutes incubation at room temperature the plate was measured again (T2).
The decrease in absorbance was calculated as (Absorbance before incubation T1)−(Absorbance following incubation T2).
as §1, §2

Chain of hFASN enzyme (full length) (P49327 whole entry, the tested form may be a part): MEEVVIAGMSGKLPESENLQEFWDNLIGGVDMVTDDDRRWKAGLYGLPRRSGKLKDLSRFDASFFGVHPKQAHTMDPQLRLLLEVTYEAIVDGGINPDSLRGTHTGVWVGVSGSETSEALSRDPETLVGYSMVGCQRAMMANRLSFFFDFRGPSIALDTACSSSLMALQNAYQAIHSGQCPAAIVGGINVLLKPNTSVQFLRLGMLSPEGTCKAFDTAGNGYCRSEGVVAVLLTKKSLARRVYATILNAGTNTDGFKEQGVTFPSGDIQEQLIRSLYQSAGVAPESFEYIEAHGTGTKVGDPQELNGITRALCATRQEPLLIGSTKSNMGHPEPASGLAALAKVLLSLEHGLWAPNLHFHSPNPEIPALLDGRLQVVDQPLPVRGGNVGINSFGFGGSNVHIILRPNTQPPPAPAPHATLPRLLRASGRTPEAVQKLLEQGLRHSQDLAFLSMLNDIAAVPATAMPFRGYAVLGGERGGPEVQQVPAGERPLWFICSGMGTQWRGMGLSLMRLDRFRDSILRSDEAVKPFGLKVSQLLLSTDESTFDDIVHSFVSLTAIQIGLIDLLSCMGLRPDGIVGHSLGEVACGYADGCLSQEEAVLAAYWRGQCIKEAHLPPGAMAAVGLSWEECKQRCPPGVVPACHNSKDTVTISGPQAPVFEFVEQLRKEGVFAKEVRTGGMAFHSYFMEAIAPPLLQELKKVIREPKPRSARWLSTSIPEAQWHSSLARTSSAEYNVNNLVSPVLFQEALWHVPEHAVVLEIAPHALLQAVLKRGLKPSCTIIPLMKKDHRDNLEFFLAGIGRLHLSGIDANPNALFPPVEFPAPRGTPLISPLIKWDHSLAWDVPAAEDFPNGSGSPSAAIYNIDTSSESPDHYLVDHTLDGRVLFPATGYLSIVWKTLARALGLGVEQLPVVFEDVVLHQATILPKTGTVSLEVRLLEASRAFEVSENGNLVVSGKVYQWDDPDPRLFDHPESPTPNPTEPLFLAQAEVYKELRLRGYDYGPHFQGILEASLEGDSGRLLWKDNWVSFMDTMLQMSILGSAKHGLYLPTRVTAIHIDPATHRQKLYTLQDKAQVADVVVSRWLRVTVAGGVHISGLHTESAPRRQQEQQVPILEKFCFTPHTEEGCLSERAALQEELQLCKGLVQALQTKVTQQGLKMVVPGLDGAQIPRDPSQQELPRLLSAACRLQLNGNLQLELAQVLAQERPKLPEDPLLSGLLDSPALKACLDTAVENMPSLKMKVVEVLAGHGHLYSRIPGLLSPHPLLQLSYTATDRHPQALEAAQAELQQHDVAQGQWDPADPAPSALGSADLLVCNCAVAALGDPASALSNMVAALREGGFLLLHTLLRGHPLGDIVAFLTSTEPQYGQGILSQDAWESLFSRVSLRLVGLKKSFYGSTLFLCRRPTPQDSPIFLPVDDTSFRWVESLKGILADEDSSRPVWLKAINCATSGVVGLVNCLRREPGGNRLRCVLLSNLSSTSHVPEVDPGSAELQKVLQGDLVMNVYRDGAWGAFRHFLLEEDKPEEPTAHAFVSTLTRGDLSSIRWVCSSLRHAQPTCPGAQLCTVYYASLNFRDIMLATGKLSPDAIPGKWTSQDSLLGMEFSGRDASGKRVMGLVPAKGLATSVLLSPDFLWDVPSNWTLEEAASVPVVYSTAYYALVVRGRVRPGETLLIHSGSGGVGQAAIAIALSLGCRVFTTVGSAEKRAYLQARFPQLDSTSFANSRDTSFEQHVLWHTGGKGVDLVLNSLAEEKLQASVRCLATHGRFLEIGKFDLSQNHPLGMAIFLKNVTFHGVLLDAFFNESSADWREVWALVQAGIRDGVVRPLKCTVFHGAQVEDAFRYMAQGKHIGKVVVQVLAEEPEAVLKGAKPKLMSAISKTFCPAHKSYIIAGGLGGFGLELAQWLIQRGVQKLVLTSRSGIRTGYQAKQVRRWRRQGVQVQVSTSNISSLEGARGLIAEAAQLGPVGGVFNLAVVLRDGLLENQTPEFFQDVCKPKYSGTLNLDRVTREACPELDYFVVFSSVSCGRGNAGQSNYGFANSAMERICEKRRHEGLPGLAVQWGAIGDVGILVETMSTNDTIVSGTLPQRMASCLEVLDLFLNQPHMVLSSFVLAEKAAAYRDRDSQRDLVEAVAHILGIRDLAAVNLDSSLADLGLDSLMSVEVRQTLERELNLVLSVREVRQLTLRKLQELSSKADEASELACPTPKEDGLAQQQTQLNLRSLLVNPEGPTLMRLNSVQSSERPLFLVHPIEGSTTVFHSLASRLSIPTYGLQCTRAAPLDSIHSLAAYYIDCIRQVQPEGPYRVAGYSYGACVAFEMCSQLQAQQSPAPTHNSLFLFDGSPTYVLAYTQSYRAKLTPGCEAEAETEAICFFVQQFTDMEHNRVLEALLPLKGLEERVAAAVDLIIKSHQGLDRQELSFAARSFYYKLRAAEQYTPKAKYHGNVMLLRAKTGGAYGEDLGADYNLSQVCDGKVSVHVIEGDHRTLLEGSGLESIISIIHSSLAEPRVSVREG
Chain of FASN Keto-reductase Domain (hFASN enzyme, full length) (P49327 whole entry, the tested form may be a part): as above

As for `CC1(C)N=C(c2ccc(-c3ccc4cc(F)ccc4c3)cc2)N(C[C@@H]2CCN(C(=O)C3CC3)C2)C1=O` [Compound 30, (R)-1((1-(cyclopropanecarbonyl)pyrrolidin-3-yl)methyl)-2-(4-(6-fluoronaphthalen-2-yl)phenyl)-4,4-dimethyl-1H-imidazol-5(4H)-one], in assay [1], the “Human FASN pIC50” value is 7.26. For the same molecule, the “FASN Keto-reductase Domain pIC50” value in assay [2] is on record as 7.17.

Turning to `CC1(C)N=C(c2ccc(-c3cccc4ncccc34)cc2)N(C[C@@H]2CCN(C(=O)C3CC3)C2)C1=O` [Compound 31, (R)-1-((1-(cyclopropanecarbonyl)pyrrolidin-3-yl)methyl)-4,4-dimethyl-2-(4-(quinolin-5-yl)phenyl)-1H-imidazol-5(4H)-one], in assay [1], the “Human FASN pIC50” value came out at 6.72. The “FASN Keto-reductase Domain pIC50” value in assay [2] came to 6.33.

With `Cn1ncc2cc(-c3ccc(C4=NC(C)(C)C(=O)N4CC4CN(C(=O)C5CC5)C4)c(F)c3)ccc21` [Compound 32, 1-((1-(cyclopropanecarbonyl)azetidin-3-yl)methyl)-2-(2-fluoro-4-(1-methyl-1H-indazol-5-yl)phenyl)-4,4-dimethyl-1H-imidazol-5(4H)-one], the “Human FASN pIC50” value in assay [1] was 6.29. In addition, the “FASN Keto-reductase Domain pIC50” value in assay [2] worked out at 5.86.

As to `Cn1cc(-c2ccc(-c3ccc(C4=NC(C)(C)C(=O)N4CC4CN(C(=O)C5CC5)C4)c(F)c3)cc2)cn1` [Compound 33, 1-((1-(cyclopropanecarbonyl)azetidin-3-yl)methyl)-2-(3-fluoro-4′-(1-methyl-1H-pyrazol-4-yl)-[1,1′-biphenyl]-4-yl)-4,4-dimethyl-1H-imidazol-5(4H)-one], the “Human FASN pIC50” value in assay [1] amounted to 6.74. Besides, the “FASN Keto-reductase Domain pIC50” value in assay [2] is recorded as 6.38.

In the case of `CC1(C)N=C(c2ccc(-c3ccc4cccnc4c3)cc2F)N(CC2CN(C(=O)C3CC3)C2)C1=O` [Compound 39, 1-((1-(cyclopropanecarbonyl)azetidin-3-yl)methyl)-2-(2-fluoro-4-(quinolin-7-yl)phenyl)-4,4-dimethyl-1H-imidazol-5(4H)-one], the “Human FASN pIC50” value in assay [1] was 7.05. The “FASN Keto-reductase Domain pIC50” value in assay [2] amounted to 6.81.

As for `CC1(C)N=C(c2ccc(-c3ccc4cccc(F)c4c3)cc2)N(CC2CN(C(=O)C3CC3)C2)C1=O` [Compound 40, 1-((1-(cyclopropanecarbonyl)azetidin-3-yl)methyl)-2-(4-(8-fluoronaphthalen-2-yl)phenyl)-4,4-dimethyl-1H-imidazol-5(4H)-one], the “Human FASN pIC50” value in assay [1] is given as 6.75. Moreover, in assay [2], the “FASN Keto-reductase Domain pIC50” value worked out at 6.46.

Turning to `CC1(C)N=C(c2ccc(-c3ccc4cccc(F)c4c3)cc2)N(C[C@@H]2CCN(C(=O)C3CC3)C2)C1=O` [Compound 41, (R)-1-((1-(cyclopropanecarbonyl)pyrrolidin-3-yl)methyl)-2-(4-(8-fluoronaphthalen-2-yl)phenyl)-4,4-dimethyl-1H-imidazol-5(4H)-one], the “Human FASN pIC50” value in assay [1] came out at 7.34. Moreover, in assay [2], the “FASN Keto-reductase Domain pIC50” value was determined as 7.13.

`CC1(C)N=C(c2ccc(-c3ccc4cncnc4c3)cc2)N(C[C@@H]2CCN(C(=O)C3CC3)C2)C1=O` [Compound 42, (R)-1-((1-(cyclopropanecarbonyl)pyrrolidin-3-yl)methyl)-4,4-dimethyl-2-(4-(quinazolin-7-yl)phenyl)-1H-imidazol-5(4H)-one]: in assay [1], the “Human FASN pIC50” value turned out to be 6.65. The “FASN Keto-reductase Domain pIC50” value in assay [2] stood at 6.32.

For the molecule `CC1(C)N=C(c2ccc(-c3ccc4cncnc4c3)cc2F)N(C[C@@H]2CCN(C(=O)C3CC3)C2)C1=O` [Compound 44, (R)-1-((1-(cyclopropanecarbonyl)pyrrolidin-3-yl)methyl)-2-(2-fluoro-4-(quinazolin-7-yl)phenyl)-4,4-dimethyl-1H-imidazol-5(4H)-one], the “Human FASN pIC50” value in assay [1] was 6.79. Besides, in assay [2], the “FASN Keto-reductase Domain pIC50” value was 6.65.

For `Cn1cc(-c2ccc(-c3ccc(C4=NC(C)(C)C(=O)N4C[C@@H]4CCN(C(=O)C5CC5)C4)c(F)c3)cc2)cn1` [Compound 45, (R)-1-((1-(cyclopropanecarbonyl)pyrrolidin-3-yl)methyl)-2-(3-fluoro-4-(1-methyl-1H-pyrazol-4-yl)-[1,1′-biphenyl]-4-yl)-4,4-dimethyl-1H-imidazol-5(4H)-one], the “Human FASN pIC50” value in assay [1] is reported as 7.20. In assay [2], the “FASN Keto-reductase Domain pIC50” value came to 6.95.

Turning to `CC1(C)N=C(c2ccc(-c3ccc(-c4ccncc4)cc3)cc2F)N(C[C@@H]2CCN(C(=O)C3CC3)C2)C1=O` [Compound 46, (R)-1-((1-(cyclopropanecarbonyl)pyrrolidin-3-yl)methyl)-2-(3-fluoro-4′-(pyridin-4-yl)-[1,1′-biphenyl]-4-yl)-4,4-dimethyl-1H-imidazol-5(4H)-one], in assay [1], the “Human FASN pIC50” value worked out at 7.28. In addition, the “FASN Keto-reductase Domain pIC50” value in assay [2] is 6.90.

Regarding `CC1(C)N=C(c2ccc(-c3cccc4ncccc34)cc2F)N(C[C@@H]2CCN(C(=O)C3CC3)C2)C1=O` [Compound 47, (R)-1-((1-(cyclopropanecarbonyl)pyrrolidin-3-yl)methyl)-2-(2-fluoro-4-(quinolin-5-yl)phenyl)-4,4-dimethyl-1H-imidazol-5(4H)-one], in assay [1], the “Human FASN pIC50” value was found to be 6.78. The “FASN Keto-reductase Domain pIC50” value in assay [2] is 6.52.

With `CC1(C)N=C(c2ccc(-c3ccc4cccnc4c3)cc2F)N(C[C@@H]2CCN(C(=O)C3CC3)C2)C1=O` [Compound 49, (R)-1-((1-(cyclopropanecarbonyl)pyrrolidin-3-yl)methyl)-2-(2-fluoro-4-(quinolin-7-yl)phenyl)-4,4-dimethyl-1H-imidazol-5(4H)-one], in assay [1], the “Human FASN pIC50” value came out at 7.34. The “FASN Keto-reductase Domain pIC50” value in assay [2] turned out to be 7.20.

On to `CC1(C)N=C(c2ccc(-c3nc4ccccc4o3)cc2F)N(CC2CN(C(=O)C3CC3)C2)C1=O` [Compound 52, 2-(4-(benzo[d]oxazol-2-yl)-2-fluorophenyl)-1-((1-(cyclopropanecarbonyl)azetidin-3-yl)methyl)-4,4-dimethyl-1H-imidazol-5(4H)-one], for which, in assay [1], the “Human FASN pIC50” value was 6.25. The “FASN Keto-reductase Domain pIC50” value in assay [2] amounted to 5.77.

For `CC1(C)N=C(c2ccc(-c3ccc4cc(F)ccc4c3)cc2F)N(CC2CN(C(=O)C3CC3)C2)C1=O` [Compound 54, 1-((1-(cyclopropanecarbonyl)azetidin-3-yl)methyl)-2-(2-fluoro-4-(6-fluoronaphthalen-2-yl)phenyl)-4,4-dimethyl-1H-imidazol-5(4H)-one], in assay [1], the “Human FASN pIC50” value turned out to be 7.55. The “FASN Keto-reductase Domain pIC50” value in assay [2] came to 6.55.

Take `CC1(C)N=C(c2ccc(-c3ccc4cccc(F)c4c3)cc2F)N(CC2CN(C(=O)C3CC3)C2)C1=O` [Compound 55, 1-((1-(cyclopropanecarbonyl)azetidin-3-yl)methyl)-2-(2-fluoro-4-(8-fluoronaphthalen-2-yl)phenyl)-4,4-dimethyl-1H-imidazol-5(4H)-one]: in assay [1], the “Human FASN pIC50” value amounted to 7.46. Besides, the “FASN Keto-reductase Domain pIC50” value in assay [2] stood at 6.60.

On to `CC1(C)N=C(c2ccc(-c3ccc4cnccc4c3)cc2F)N(CC2CN(C(=O)C3CC3)C2)C1=O` [Compound 56, 1-((1-(cyclopropanecarbonyl)azetidin-3-yl)methyl)-2-(2-fluoro-4-(isoquinolin-6-yl)phenyl)-4,4-dimethyl-1H-imidazol-5(4H)-one], for which the “Human FASN pIC50” value in assay [1] was 7.17. The “FASN Keto-reductase Domain pIC50” value in assay [2] stood at 6.33.

Consider `CC1(C)N=C(c2ccc(-c3n[nH]c4ccccc34)cc2F)N(C[C@@H]2CCN(C(=O)C3CC3)C2)C1=O` [Compound 57, (R)-1-((1-(cyclopropanecarbonyl)pyrrolidin-3-yl)methyl)-2-(2-fluoro-4-(1H-indazol-3-yl)phenyl)-4,4-dimethyl-1H-imidazol-5(4H)-one], for which the “Human FASN pIC50” value in assay [1] turned out to be 6.48. For the same molecule, in assay [2], the “FASN Keto-reductase Domain pIC50” value is reported as 5.56.

Turning to `CC1(C)N=C(c2ccc(-c3c[nH]c4ccccc34)cc2F)N(CC2CN(C(=O)C3CC3)C2)C1=O` [Compound 62, 1-((1-(cyclopropanecarbonyl)azetidin-3-yl)methyl)-2-(2-fluoro-4-(1H-indol-3-yl)phenyl)-4,4-dimethyl-1H-imidazol-5(4H)-one], the “Human FASN pIC50” value in assay [1] turned out to be 6.69. Moreover, in assay [2], the “FASN Keto-reductase Domain pIC50” value was 6.26.

Regarding `CC1(C)N=C(c2ccc(-c3c[nH]c4ccccc34)cc2F)N(C[C@@H]2CCN(C(=O)C3CC3)C2)C1=O` [Compound 63, (R)-1-((1-(cyclopropanecarbonyl)pyrrolidin-3-yl)methyl)-2-(2-fluoro-4-(1H-indol-3-yl)phenyl)-4,4-dimethyl-1H-imidazol-5(4H)-one], in assay [1], the “Human FASN pIC50” value turned out to be 7.16. Besides, the “FASN Keto-reductase Domain pIC50” value in assay [2] stood at 6.73.

Consider `CC1(C)N=C(c2ccc(-c3c[nH]c4ccccc34)cc2)N(C[C@@H]2CCN(C(=O)C3CC3)C2)C1=O` [Compound 65, (R)-2-(4-(1H-indol-3-yl)phenyl)-1-((1-(cyclopropanecarbonyl)pyrrolidin-3-yl)methyl)-4,4-dimethyl-1H-imidazol-5(4H)-one], for which the “Human FASN pIC50” value in assay [1] came to 6.64. The “FASN Keto-reductase Domain pIC50” value in assay [2] is on record as 6.14.
